The source of these data is PubChem BioAssay AID274 (DTP/NCI, 2004).

“And” between values parts separate entries of the source, which are not always exact repeats. Identical values can stand only once. Toxic doses and inconclusive results are not listed. Numbered stars: 1 amine (or outer) side, 2 acyl side, 3 side chain; on linkers, the order of the positions; unused ones are H or OH. Bridge positions count the residues as written; N and C are the ends. Square brackets hold non-standard residues; d marks the D form. Peptide text beside a SMILES is read from it. I, II: the chains in the order shown. Actinocin(9to1) = Cc1c2oc3c(C)ccc(C(=O)[*:1])c3nc-2c(C(=O)[*:2])c(N)c1=O; aThr = C[C@H](O)[C@H](N)C(=O)O; NMeV = CN[C@H](C(=O)O)C(C)C; Sar = CNCC(=O)O

For this test, the system named is BDF1 mice, Lewis lung carcinoma iv, survival T/C. The test can be described thus: NCI In Vivo Anticancer Drug Screen. Data for tumor model Lewis Lung Carcinoma (intravenous) in B6D2F1 (BDF1) mice. As to conditions: endpoint: median survival time, higher = longer survival. The procedure: The antitumor activity of compounds was measured in mice bearing transplantable tumors. Survival or tumor size were measured and the results are expressed as the measurement made in the treated group (T) divided by the measurement made in the vehicle treated control group (C). The tumor model used in this assay is Lewis Lung Carcinoma (intravenous) in B6D2F1 (BDF1) mice

[1] abbreviates: dose: 12.5 mg/kg/injection, schedule: Q01DX009 (ip), vehicle: saline with Tween-80.
Where [2] appears, read: dose: 25.0 mg/kg/injection, schedule: Q01DX009 (ip), vehicle: saline with Tween-80.
[3] abbreviates: dose: 50.0 mg/kg/injection, schedule: Q01DX009 (ip), vehicle: saline with Tween-80.
[4] abbreviates: dose: 100.0 mg/kg/injection, schedule: Q01DX009 (ip), vehicle: saline with Tween-80.
[5] abbreviates: dose: 200.0 mg/kg/injection, schedule: Q01DX009 (ip), vehicle: saline with Tween-80.
Setting [6] is: dose: 50.0 mg/kg/injection, schedule: Q01DX009 (ip), vehicle: Klucel (hydroxypropylcellulose) (HPC).
Where [7] appears, read: dose: 100.0 mg/kg/injection, schedule: Q01DX009 (ip), vehicle: Klucel (hydroxypropylcellulose) (HPC).
The mark [8] stands for this setting: dose: 400.0 mg/kg/injection, schedule: Q01DX009 (ip), vehicle: Klucel (hydroxypropylcellulose) (HPC).
Where [9] appears, read: dose: 12.5 mg/kg/injection, schedule: Q01DX009 (ip), vehicle: saline.
Where [10] appears, read: dose: 25.0 mg/kg/injection, schedule: Q01DX009 (ip), vehicle: saline.
Where [11] appears, read: dose: 50.0 mg/kg/injection, schedule: Q01DX009 (ip), vehicle: saline.
Setting [12] is: dose: 3.12 mg/kg/injection, schedule: Q01DX009 (ip), vehicle: saline.
Setting [13] is: dose: 6.25 mg/kg/injection, schedule: Q01DX009 (ip), vehicle: saline.
Setting [14] is: dose: 25.0 mg/kg/injection, schedule: Q01DX009 (ip), vehicle: Klucel (hydroxypropylcellulose) (HPC).

With `Cc1ccc2c(c1)N=C(Nc1ccccc1)N=S2(C)=O` (stereo not given), the T/C is 102 % of control (dose: 6.25 mg/kg/injection, schedule: Q01DX009 (ip), vehicle: saline with Tween-80); 102 % of control under setting [1]; 111 % of control under setting [2]; 112 % of control under setting [3]; 115 % of control under setting [4]; 116 % of control under setting [5].

For the compound `O=Cc1ccc(C=O)c(Cl)c1`, the T/C reads like this: under setting [6], 101 % of control; under setting [7], 100 % of control; (dose: 200.0 mg/kg/injection, schedule: Q01DX009 (ip), vehicle: Klucel (hydroxypropylcellulose) (HPC)) 105 % of control; under setting [8], 95 % of control.

For `O=c1[nH]c(=O)c2nc(-c3cccnc3)cnc2[nH]1`, the T/C is 102 % of control under setting [9]; 101 % of control under setting [10]; 108 % of control under setting [11]; 100 % of control (dose: 100.0 mg/kg/injection, schedule: Q01DX009 (ip), vehicle: saline); 111 % of control (dose: 200.0 mg/kg/injection, schedule: Q01DX009 (ip), vehicle: saline); 111 % of control (dose: 400.0 mg/kg/injection, schedule: Q01DX009 (ip), vehicle: saline).

In the case of `CCc1ncnc2cc(OCC3CO3)c(OC)cc12` (stereo not given), the T/C runs as follows: (dose: 6.25 mg/kg/injection, schedule: Q01DX009 (ip), vehicle: suspension in saline) 98 % of control; (dose: 12.5 mg/kg/injection, schedule: Q01DX009 (ip), vehicle: suspension in saline) 104 % of control; (dose: 25.0 mg/kg/injection, schedule: Q01DX009 (ip), vehicle: suspension in saline) 93 % of control.

For the compound `COc1cc(NCCCCCCCNC(C)C)c2nccc(C)c2c1`, the T/C is, setting by setting: under setting [12], 94 % of control; under setting [13], 100 % of control; under setting [9], 98 % of control; under setting [10], 108 % of control.

As to `O=c1oc2c(O)c(O)cc3c(=O)oc4c(O)c(O)cc1c4c23`, the T/C reads like this: (dose: 12.5 mg/kg/injection, schedule: Q01DX009 (ip), vehicle: Klucel (hydroxypropylcellulose) (HPC)) 102 % of control; under setting [14], 112 % of control; under setting [6], 116 % of control; under setting [7], 111 % of control; under setting [8], 121 % of control.

`COc1cc2ccnc(C=O)c2cc1OC`: the T/C is 107 % of control under setting [2], 102 % of control under setting [3], 102 % of control under setting [4] and 108 % of control under setting [5].

`Cc1c2oc3c(C)ccc(C(=O)N[C@@H]4C(=O)N[C@H](C(C)C)C(=O)N5CCC[C@H]5C(=O)N(C)CC(=O)N(C)[C@@H](C(C)C)C(=O)O[C@H]4C)c3nc-2c(C(=O)N[C@@H]2C(=O)N[C@H](C(C)C)C(=O)N3CCC[C@H]3C(=O)N(C)CC(=O)N(C)[C@@H](C(C)C)C(=O)O[C@H]2C)c(N)c1=O` (I: [aThr][dV]P[Sar][NMeV] / II: [aThr][dV]P[Sar][NMeV]; ester I:1-I:C, II:1-II:C; linker I:N-II:N via Actinocin(9to1)): the T/C is 91 % of control (dose: 65.0 micrograms/kg/injection, schedule: Q04DX003 (ip), vehicle: saline + alcohol); 92 % of control and 94 % of control (dose: 108.0 micrograms/kg/injection, schedule: Q04DX003 (ip), vehicle: saline + alcohol); 97 % of control and 104 % of control (dose: 180.0 micrograms/kg/injection, schedule: Q04DX003 (ip), vehicle: saline + alcohol); 94 % of control (dose: 259.0 micrograms/kg/injection, schedule: Q01DX001 (ip), vehicle: saline + alcohol); 95 % of control and 106 % of control (dose: 300.0 micrograms/kg/injection, schedule: Q04DX003 (ip), vehicle: saline + alcohol); 98 % of control (dose: 432.0 micrograms/kg/injection, schedule: Q01DX001 (ip), vehicle: saline + alcohol).

For `O=C1N=C(Oc2ccccc2)SC1=O`, the T/C by setting is: under setting [1], 100 % of control and 109 % of control; under setting [2], 97 % of control; under setting [3], 94 % of control and 102 % of control; under setting [4], 100 % of control.

For `O=C1c2ccccc2C(=O)c2c(NCCNCCO)ccc(O)c21`, the T/C runs as follows: (dose: 2.5 mg/kg/injection, schedule: Q01DX009 (ip), vehicle: suspension in saline) 92 % of control; (dose: 5.0 mg/kg/injection, schedule: Q01DX009 (ip), vehicle: suspension in saline) 88 % of control; (dose: 10.0 mg/kg/injection, schedule: Q01DX009 (ip), vehicle: suspension in saline) 88 % of control; (dose: 20.0 mg/kg/injection, schedule: Q01DX009 (ip), vehicle: suspension in saline) 97 % of control; (dose: 40.0 mg/kg/injection, schedule: Q01DX009 (ip), vehicle: suspension in saline) 103 % of control; (dose: 80.0 mg/kg/injection, schedule: Q01DX009 (ip), vehicle: suspension in saline) 102 % of control.

As to `CNC=O`, the T/C (dose: 100.0 mg/kg/injection, schedule: Q01DX009 (ip), vehicle: saline sonified) was 106 % of control; the T/C (dose: 200.0 mg/kg/injection, schedule: Q01DX009 (ip), vehicle: saline sonified) was 114 % of control; the T/C (dose: 400.0 mg/kg/injection, schedule: Q01DX009 (ip), vehicle: saline sonified) is 115 % of control.

With `O=c1[nH]c(=O)n([C@H]2CCCO2)cc1F`, the T/C under setting [14] is 106 % of control, the T/C under setting [6] is 104 % of control and the T/C under setting [7] is 100 % of control.

For the compound `CCS(=O)(=O)OCCCCOS(=O)(=O)CC`, the T/C by setting is: (dose: 3.13 mg/kg/injection, schedule: Q01DX009 (ip), vehicle: saline) 99 % of control; under setting [13], 103 % of control.

Turning to `NC(=S)n1cccn1`, the T/C reads like this: under setting [3], 99 % of control; under setting [4], 94 % of control; under setting [5], 103 % of control.

As for `C=C1C(=O)C2=CC1CCC(=O)C1(C)CCC(OC(C)=O)C(C)(C)C1CC2O` (stereo not given), the T/C was 105 % of control (dose: 3.75 mg/kg/injection, schedule: Q01DX009 (ip), vehicle: Klucel (hydroxypropylcellulose) (HPC)); 100 % of control (dose: 7.5 mg/kg/injection, schedule: Q01DX009 (ip), vehicle: Klucel (hydroxypropylcellulose) (HPC)); 100 % of control (dose: 15.0 mg/kg/injection, schedule: Q01DX009 (ip), vehicle: Klucel (hydroxypropylcellulose) (HPC)); 104 % of control (dose: 30.0 mg/kg/injection, schedule: Q01DX009 (ip), vehicle: Klucel (hydroxypropylcellulose) (HPC)); 93 % of control (dose: 60.0 mg/kg/injection, schedule: Q01DX009 (ip), vehicle: Klucel (hydroxypropylcellulose) (HPC)).

For `O=NN(CCCl)C(=O)NC1CCC(=O)NC1=O` (stereo not given), the T/C is, setting by setting: (dose: 0.5 mg/kg/injection, schedule: Q01DX009 (ip), vehicle: saline with Tween-80) 115 % of control; (dose: 1.0 mg/kg/injection, schedule: Q01DX009 (ip), vehicle: saline with Tween-80) 103 % of control; (dose: 2.0 mg/kg/injection, schedule: Q01DX009 (ip), vehicle: saline with Tween-80) 185 % of control; (dose: 4.0 mg/kg/injection, schedule: Q01DX009 (ip), vehicle: saline with Tween-80) 247 % of control; (dose: 8.0 mg/kg/injection, schedule: Q01DX009 (ip), vehicle: saline with Tween-80) 104 % of control.

Consider `O=c1ccn(C2OC(CO)C(O)C2O)c(=O)[nH]1` (stereo not given), for which the T/C (dose: 32.0 mg/kg/injection, schedule: Q01DX009 (ip), vehicle: Klucel (hydroxypropylcellulose) (HPC)) is 109 % of control; the T/C (dose: 64.0 mg/kg/injection, schedule: Q01DX009 (ip), vehicle: Klucel (hydroxypropylcellulose) (HPC)) was 96 % of control; the T/C (dose: 128.0 mg/kg/injection, schedule: Q01DX009 (ip), vehicle: Klucel (hydroxypropylcellulose) (HPC)) is 96 % of control; the T/C (dose: 256.0 mg/kg/injection, schedule: Q01DX009 (ip), vehicle: Klucel (hydroxypropylcellulose) (HPC)) was 110 % of control; the T/C (dose: 512.0 mg/kg/injection, schedule: Q01DX009 (ip), vehicle: Klucel (hydroxypropylcellulose) (HPC)) is 106 % of control.

Take `CCC(C)n1ncc2c(N(C)C)ncnc21` (stereo not given): the T/C is 102 % of control under setting [10] and 98 % of control under setting [11].

As for `OCCOCCN1CCN(CCCN2c3ccccc3Sc3ccc(C(F)(F)F)cc32)CC1`, the T/C by setting is: (dose: 1.56 mg/kg/injection, schedule: Q01DX009 (ip), vehicle: saline) 110 % of control; under setting [12], 105 % of control; under setting [13], 102 % of control; under setting [9], 123 % of control.
